{"source": "patent US7691624B2", "about": "“Cancer cell detecting devices” (Academia Sinica, priority 2003, dated 2010)", "key": {"[1]": {"system": "Hum24 quadruplex", "test": "Temperature-dependent CD analysis", "format": "binding, human", "excerpt": "Eight DNA quadruplexes and their complexes with compound 2 were subjected to CD analysis. CD spectra were averaged 10 scans on a Jasco J-715 spectropolarimeter with a 2 nm bandwidth. The scan speed was 50 nm/min and the step resolution was 0.2 nm.\nFurther, Hum24 and its complexes with compounds 2, 4, 6, and 8 were subjected to temperature-dependent CD analysis."}, "[2]": {"test": "Fluorescence analysis in aqueous solution", "format": "physicochemical", "settings": "λex≈430 nm, no DNA", "method": "(§1) Compound 2 was mixed with eleven DNAs and subjected to fluorescence analysis at λex≈430 nm, using a Hitachi F4010 spectrofluorimeter with a 2 nm bandwidth in a 1-cm cell. Fluorescence analysis was also carried out for compound 4 in the presence of Hum24. […] Further, the fluorescence peaks for a complex of compound 2 and a DNA duplex and a complex of compound 2 and a DNA quadruplex were at ˜550 nm and ˜575 nm, respectively."}, "[3]": {"system": "DNA", "test": "Fluorescence analysis in the presence of a DNA", "format": "binding", "settings": "λex≈430 nm; compound 2 with eleven DNAs, compound 4 with Hum24", "method": "as §1"}, "[4]": {"system": "CL1-0 cancer cells", "test": "Stained cells spread onto cover slip, fluorescent cells counted", "format": "cell-based", "settings": "0.02 μM AO, 5 minutes, cover slip, LED", "method": "Further, the role of the ratio of the cells stained by Compound 2/AO in cancer diagnosis was studied. Specifically, CL1-0 cancer cells, NIH3T3 normal cells, and their 1:10 mixture were respectively stained with 0.02 μM AO and 1.5 μM Compound 2 for 5 minutes in eppendorfs. Each sample was then taken from the eppendorf and spread onto a cover slip. Fluorescence emissions were recorded by a color camera upon an LED illumination. […] A statistical histogram of the ratio of the cell stained with Compound 2/AO to the ratio of the CL1-0 cells to the sum of NIH3T3 and CL1-0 cells was plotted. Each spot on the histogram represented an average of 5-10 measurements from a single sample."}, "[5]": {"system": "primary fibroblast", "test": "Fluorescence of stained cells in eppendorf under LED, recorded by camera", "format": "cell-based", "settings": "Normal cells (F) primary fibroblast", "method": "(§2) Human lung CL1-0 cancer cells or MRC-5 normal cells were incubated with 0.5 μM of Compound 2 and acridine orange (AO). After incubation in standard culture medium for 1 hour, the non-fixed cells were removed by washing the culture three times with phosphate buffered saline (PBS). The fixed cells were collected in an eppendorf by trypsinization. The eppendorf was centrifuged and then illuminated by an light emitting diode (LED) emitting excitation light with a center wavelength at 470 nm. A conventional digital camera was used to record the fluorescence. Table 1 summarizes the numbers of cells required to distinguish cancer cells from normal cells based on fluorescence emission of Compound 2 and AO recorded by a camera under different experimental conditions. Specifically, Compound 2 and AO were incubated with four different cells in eppendorf, i.e., MRC-5 normal cells, primary fibroblast, CL1-0 cancer cells, and HeLa cancer cells."}, "[6]": {"system": "HeLa cancer cells", "test": "Fluorescence of stained cells in eppendorf under LED, recorded by camera", "format": "cell-based", "settings": "Cancer cells (H) HeLa", "method": "as §2"}, "[7]": {"system": "MRC-5 normal cells", "test": "Fluorescence of stained cells in eppendorf under LED, recorded by camera", "format": "cell-based, human", "settings": "for Numbers of cells required to distinguish cancer cells and normal cells: Normal cells (M) MRC-5", "method": "as §2"}, "[8]": {"system": "CL1-0 cancer cells", "test": "Fluorescence of stained cells in eppendorf under LED, recorded by camera", "format": "cell-based, human", "settings": "for Numbers of cells required to distinguish cancer cells and normal cells: Cancer cells (C) CL1-0", "method": "as §2"}}}
{"smiles": "C[n+]1ccnc(C=Cc2ccc3[nH]c4ccc(C=Cc5c[n+](C)ccn5)cc4c3c2)c1.[I-].[I-]", "note": "[Compound 6, 3,6-bis-(2-(4-methylpyrazin-4-ium-2-yl)-vinyl)-9H-carbazole diiodide]", "values": [{"measurement": "melting temperature of Hum24 quadruplex in the presence of compound", "setting": "[1]", "result": "increased"}]}
{"smiles": "C[n+]1ccccc1C=Cc1ccc2[nH]c3ccc(C=Cc4cccc[n+]4C)cc3c2c1.[I-].[I-]", "note": "[Compound 4, 3,6-bis-(2-(1-methylpyridinium-2-yl)-vinyl)-9H-carbazole diiodide]", "values": [{"measurement": "fluorescence in an aqueous solution", "setting": "[2]", "result": "weak"}, {"measurement": "melting temperature of Hum24 quadruplex in the presence of compound", "setting": "[1]", "result": "increased"}, {"measurement": "increase of fluorescence intensity in the presence of a DNA", "setting": "[3]", "result": "two orders of magnitude"}]}
{"smiles": "C[n+]1ccc(C=Nc2ccc3[nH]c4ccc(N=Cc5cc[n+](C)cc5)cc4c3c2)cc1.[I-].[I-]", "note": "[Compound 8, N,N′-bis-((1-methylpyridinium-4-yl)methylidene)-9H-carbazole-3,6-diamine diiodide]", "values": [{"measurement": "melting temperature of Hum24 quadruplex in the presence of compound", "setting": "[1]", "result": "increased"}]}
{"smiles": "CN(C)c1ccc2cc3ccc(N(C)C)cc3nc2c1", "note": "[AO, acridine orange, reference compound]", "values": [{"measurement": "number of stained cells showing fluorescence", "setting": "[4]", "result": 150}, {"measurement": "Numbers of cells required to distinguish cancer cells and normal cells", "setting": "[5]; 0.05 μM/1 hr", "result": "4,000 (F)"}, {"measurement": "Numbers of cells required to distinguish cancer cells and normal cells", "setting": "[5]; 0.1 μM/1 hr", "result": "2,000 (F)"}, {"measurement": "Numbers of cells required to distinguish cancer cells and normal cells", "setting": "[6]; 0.05 μM/1 hr", "result": "3,000 (H)"}, {"measurement": "Numbers of cells required to distinguish cancer cells and normal cells", "setting": "[6]; 0.1 μM/1 hr", "result": "2,000 (H)"}, {"measurement": "fluorescence emission in eppendorf", "setting": "[7]; 0.5 μM, 1 hour, LED 470 nm", "result": "fluorescence emission was detected"}, {"measurement": "Numbers of cells required to distinguish cancer cells and normal cells", "setting": "[7]; 0.1 μM/30 min", "result": "3,000 (M)"}, {"measurement": "Numbers of cells required to distinguish cancer cells and normal cells", "setting": "[7]; 0.5 μM/1 hr", "result": "2,000 (M)"}, {"measurement": "fluorescence emission in eppendorf", "setting": "[8]; 0.5 μM, 1 hour, LED 470 nm", "result": "fluorescence emission was detected"}, {"measurement": "Numbers of cells required to distinguish cancer cells and normal cells", "setting": "[8]; 0.1 μM/30 min", "result": "2,000 (C)"}, {"measurement": "Numbers of cells required to distinguish cancer cells and normal cells", "setting": "[8]; 0.5 μM/1 hr", "result": "1,000 (C)"}]}
